Data as given in patent US20210186972A1, “FORMULATIONS AND METHODS FOR THE PREVENTION AND TREATMENT OF TUMOR METASTASIS AND TUMORIGENESIS” (THE UNITED STATES OF AMERICA, AS REPRESENTED BY THE …, priority 2018, published 2021).
Where two headings read alike, the source gives them in different places.

Experiments:
C57B/L6 = type: in vivo, mice
[1] = system: patient-derived breast cancer xenotransplantation model (PDX); test: Patient-derived breast cancer xenotransplantation model (PDX); type: in vivo; conditions: 25 mg/kg IP, 5-day on and 2-day off, 4 weeks
Experimental: Metarrestin was tested in PC3M xenograft mice to determine whether metarrestin's anti-metastasis activity (observed in the NSG PANC1 mice and in vitro pan-cancer PNC suppression) translates into anti-metastasis activity in additional cancer models. Two weeks after subcutaneous implantation of PC3M cells, mice were started on 5 mg/kg or 25 mg/kg metarrestin or vehicle by daily IP injection for 4 additional weeks. Tumor progression was tracked by both in vivo imaging systems (“IVIS”) spectroscopy and tumor volume. Metastasis to the lungs was evaluated ex vivo through IVIS spectroscopy and by histopathology at the experimental endpoint. […] To evaluate the effect of metarrestin on a malignant xenograft considered closest to in vivo conditions, a patient-derived breast cancer xenotransplantation model (PDX) was used. […] Tumor size and total body weight were measured twice a week, and tumor weight was measured at experimental end-point.
Breast cancer model: The model derived from 0.2 liter of pleural effusion from a breast cancer patient (model #373342). These cancer cells had metastasized to the lung pleura from the initial tumor detected in the breast. […] Tumor size and total body weight were measured twice a week.

[2] = system: HeLa, PANC1 and PC3M cells; PANC1 xenograft tumor tissues; test: Nucleolar structure by electron microscopy and immunofluorescence in cancer cells and tumor tissues; type: cell-based, human
Experimental: Representative electron micrographs are shown for HeLa cells (FIG. 21A; treated at 1 μM for 24 hours), primary pancreatic tumors (FIG. 21B), and liver metastases (FIG. 21C) from NSG PANC1 mice treated with vehicle (top) or 10 mg/kg metarrestin (bottom) for 7 days. […] Scale bar=1 μm.
100 nucleoli were randomly selected and analyzed to calculate nucleolar area as ((largest+shortest diameter)/2)^2×π). The comparison of mean nucleolar areas was performed using Mann Whitney U test, 2-tailed, n=4 animals per group.
To address the mechanisms by which metarrestin inhibits metastasis, cellular changes after metarrestin treatment were observed. Primary antibodies: 1:300 dilution for SH54 (anti-PTB antibody); 1:300 for Nopp140 (anti-human Nopp140 rabbit polyclonal serum RS8); 1:50 for UBF (F-9) (Santa Cruz Biotechnology); 1:100 for RPA194 (Santa Cruz Biotechnology); 1:100 for CUG-BP1 (3B1) (Santa Cruz Biotechnology); 1:10 for fibrillarin (Sigma Cat #: ANA-N); 1:1000 for SC35; 1:300 for paxillin (ab32084); 1:600 for vinculin (Sigma V9131). The fluorescein-conjugated secondary antibodies (Jackson ImmunoResearch) and ALEXA FLUOR antibodies (Thermofisher Scientific) were used at a dilution of 1:200. Samples were visualized on a Nikon ECLIPSE Ti-E inverted fluorescence microscope using NIS-Elements AR 3.2 software (Nikon).
The nucleolar disruption was reversible within 48 hours upon withdrawal of metarrestin (FIG. 47). Similar disruptions were observed among other treated cell lines, including PANC1 and PC3M cells (FIG. 48), primary tumor, and liver metastatic tissues in the PANC1 xenograft model (FIG. 21, right panels). […] The segregation of the nucleolar compartments observed by EM is believed to correspond to the nucleolar capping structures detected by immunofluorescence of nucleolar proteins (FIGS. 21A-21C, 23, and 50). […]

Pol II transcription = Pol II transcription status: CUGBP and SC35 immunolabeling; type: cell-based
Excerpt: To further determine whether metarrestin interferes with Pol II transcription in general, CUGBP was immunolabeled. The steady state nuclear distribution of CUGBP, a multifunctional hnRNP protein highly enriched in the PNC, is dependent upon Pol II transcription.

[3] = female, C57B/L6, mouse, in vivo
[4] = female, C57B/L6, mouse, in vivo, 3 months
[5] = male, C57B/L6, mouse, in vivo, 3 months

## N=c1c2c(-c3ccccc3)c(-c3ccccc3)n(Cc3ccccc3)c2ncn1[C@H]1CC[C@H](O)CC1 [metarrestin]
C57B/L6; C57B/L6 Metarrestin Female F03
  Kidney regeneration, tubule: 1/4
C57B/L6; C57B/L6 Metarrestin Male M03
  Brain hemorrhage: 1/4
  Epididymis aspermia: 1/4
  Kidney regeneration, tubule: 3/4
C57B/L6; [3]
  Gall Bladder inflammation, acute: 3/4
  Ileum segmented filamentous bacteria: 3/4
C57B/L6; [4]
  Adrenal hyperplasia, subcapsular cell: 3/4
  Kidney dilatation, tubule: 3/4
  Kidney infarct: 1/4
  Kidney mineralization: 2/4
  Liver inflammation, subacute: 4/4
  Lung lymphocytic infiltrate: 4/4
  Spleen extramedullary hematopoiesis, erythrocytic, increased erythropoiesis: 2/4
C57B/L6; male, C57B/L6, mouse, in vivo
  Cecum proliferative typhlitis: 1/4
  Femur marrow hyperplasia, granulocytic: 1/4
  Gall Bladder inflammation, acute: 3/4
  Heart mineralization: 1/4
C57B/L6; [5]
  Adrenal lipogenic pigment: 4/4
  Ileum segmented filamentous bacteria: 3/4
  Kidney dilatation, tubule: 2/4
  Kidney mineralization: 2/4
  Kidney vacuolation. proximal tubule: 1/4
  Liver inflammation, subacute: 3/4
  Lung lymphocytic infiltrate: 3/4
  Spleen melanin: 1/4
  Testis degeneration, seminiferous tubule: 1/4
  Thymus cyst: 1/4
  Vertebra hyperplasia, granulocytic, marrow: 1/4
[1]
  PDX growth: effectively inhibited the PDX growth
  Tolerability (body weight and behavior): well-tolerated
[2]; 1 μM, electron microscopy
  Nucleolar structure: induced collapse of the nucleolus
[2]; after 1 μM for 24 hours, HeLa cells
  Time to reversal of nucleolar disruption upon withdrawal: ≤ 48 h
[2]; treated cell lines and cancer tissues, p<0.0001
  Nucleolar volume: significantly reduced
Pol II transcription
  Localization of CUGBP: without causing cytoplasmic relocation of CUGBP
  SC35 distribution pattern: not significantly changed
